± gives the expanded uncertainty stated by the source.
Details: Liquid; for viscosity: Concentric cylinders viscometry

CCOP(=O)([O-])OCC.CCn1cc[n+](C)c1 [1-ethyl-3-methylimidazolium diethyl phosphate]
101.33 kPa
Details | viscosity [mPa·s]
293.15 K | 664.7 ± 38
303.15 K | 317.3 ± 16
313.15 K | 173.9 ± 8.6
323.15 K | 103.8 ± 5
333.15 K | 66.37 ± 3.1
343.15 K | 44.92 ± 2.1
353.15 K | 31.86 ± 1.5
363.15 K | 23.5 ± 1.1
373.15 K | 17.92 ± 0.84

Details | mass density [kg/m3]
293.15 K, 101.33 kPa, Vibrating tube method | 1148.2 ± 1.1
303.15 K, 101.33 kPa, Vibrating tube method | 1141.2 ± 1.1
311.4 K, 10000 kPa, Bellows volumetry | 1140.5 ± 1.4
311.4 K, 20000 kPa, Bellows volumetry | 1145.4 ± 1.4
311.4 K, 30000 kPa, Bellows volumetry | 1150.1 ± 1.4
311.4 K, 40000 kPa, Bellows volumetry | 1154.6 ± 1.4
311.4 K, 50000 kPa, Bellows volumetry | 1158.9 ± 1.4
311.4 K, 60000 kPa, Bellows volumetry | 1163 ± 1.4
311.4 K, 70000 kPa, Bellows volumetry | 1167 ± 1.4
311.4 K, 80000 kPa, Bellows volumetry | 1170.9 ± 1.4
311.4 K, 90000 kPa, Bellows volumetry | 1174.6 ± 1.4
311.4 K, 100000 kPa, Bellows volumetry | 1178.3 ± 1.4
311.4 K, 110000 kPa, Bellows volumetry | 1181.8 ± 1.4
311.4 K, 120000 kPa, Bellows volumetry | 1185.2 ± 1.4
311.4 K, 130000 kPa, Bellows volumetry | 1188.6 ± 1.4
311.4 K, 140000 kPa, Bellows volumetry | 1191.8 ± 1.4
311.4 K, 150000 kPa, Bellows volumetry | 1195.2 ± 1.4
311.4 K, 160000 kPa, Bellows volumetry | 1198.2 ± 1.4
311.4 K, 170000 kPa, Bellows volumetry | 1201.4 ± 1.4
311.4 K, 180000 kPa, Bellows volumetry | 1204.4 ± 1.4
311.4 K, 190000 kPa, Bellows volumetry | 1207.3 ± 1.4
311.4 K, 200000 kPa, Bellows volumetry | 1210.3 ± 1.4
313.15 K, 101.33 kPa, Vibrating tube method | 1134.4 ± 1
323.15 K, 101.33 kPa, Vibrating tube method | 1127.8 ± 1
331.3 K, 10000 kPa, Bellows volumetry | 1127.5 ± 1.4
331.3 K, 20000 kPa, Bellows volumetry | 1132.6 ± 1.4
331.3 K, 30000 kPa, Bellows volumetry | 1137.6 ± 1.4
331.3 K, 40000 kPa, Bellows volumetry | 1142.3 ± 1.4
331.3 K, 50000 kPa, Bellows volumetry | 1146.8 ± 1.4
331.3 K, 60000 kPa, Bellows volumetry | 1151.2 ± 1.4
331.3 K, 70000 kPa, Bellows volumetry | 1155.3 ± 1.4
331.3 K, 80000 kPa, Bellows volumetry | 1159.4 ± 1.4
331.3 K, 90000 kPa, Bellows volumetry | 1163.2 ± 1.4
331.3 K, 100000 kPa, Bellows volumetry | 1167.1 ± 1.4
331.3 K, 110000 kPa, Bellows volumetry | 1170.7 ± 1.4
331.3 K, 120000 kPa, Bellows volumetry | 1174.4 ± 1.4
331.3 K, 130000 kPa, Bellows volumetry | 1177.8 ± 1.4
331.3 K, 140000 kPa, Bellows volumetry | 1181.3 ± 1.4
331.3 K, 150000 kPa, Bellows volumetry | 1184.8 ± 1.4
331.3 K, 160000 kPa, Bellows volumetry | 1187.9 ± 1.4
331.3 K, 170000 kPa, Bellows volumetry | 1191 ± 1.4
331.3 K, 180000 kPa, Bellows volumetry | 1194.1 ± 1.4
331.3 K, 190000 kPa, Bellows volumetry | 1197.3 ± 1.4
331.3 K, 200000 kPa, Bellows volumetry | 1200.2 ± 1.4
333.15 K, 101.33 kPa, Vibrating tube method | 1121.2 ± 1
343.15 K, 101.33 kPa, Vibrating tube method | 1114.6 ± 1
351.4 K, 10000 kPa, Bellows volumetry | 1114.6 ± 1.4
351.4 K, 20000 kPa, Bellows volumetry | 1120 ± 1.4
351.4 K, 30000 kPa, Bellows volumetry | 1125.2 ± 1.4
351.4 K, 40000 kPa, Bellows volumetry | 1130.2 ± 1.4
351.4 K, 50000 kPa, Bellows volumetry | 1134.9 ± 1.4
351.4 K, 60000 kPa, Bellows volumetry | 1139.5 ± 1.4
351.4 K, 70000 kPa, Bellows volumetry | 1144 ± 1.4
351.4 K, 80000 kPa, Bellows volumetry | 1148.1 ± 1.4
351.4 K, 90000 kPa, Bellows volumetry | 1152.2 ± 1.4
351.4 K, 100000 kPa, Bellows volumetry | 1156.1 ± 1.4
351.4 K, 110000 kPa, Bellows volumetry | 1159.9 ± 1.4
351.4 K, 120000 kPa, Bellows volumetry | 1163.6 ± 1.4
351.4 K, 130000 kPa, Bellows volumetry | 1167.2 ± 1.4
351.4 K, 140000 kPa, Bellows volumetry | 1170.7 ± 1.4
351.4 K, 150000 kPa, Bellows volumetry | 1174.2 ± 1.4
351.4 K, 160000 kPa, Bellows volumetry | 1177.5 ± 1.4
351.4 K, 170000 kPa, Bellows volumetry | 1180.8 ± 1.4
351.4 K, 180000 kPa, Bellows volumetry | 1184 ± 1.4
351.4 K, 190000 kPa, Bellows volumetry | 1187.1 ± 1.4
351.4 K, 200000 kPa, Bellows volumetry | 1190.3 ± 1.4
353.15 K, 101.33 kPa, Vibrating tube method | 1108 ± 1
363.15 K, 101.33 kPa, Vibrating tube method | 1101.5 ± 1
371.6 K, 10000 kPa, Bellows volumetry | 1102 ± 1.4
371.6 K, 20000 kPa, Bellows volumetry | 1107.7 ± 1.4
371.6 K, 30000 kPa, Bellows volumetry | 1113.3 ± 1.4
371.6 K, 40000 kPa, Bellows volumetry | 1118.5 ± 1.4
371.6 K, 50000 kPa, Bellows volumetry | 1123.4 ± 1.4
371.6 K, 60000 kPa, Bellows volumetry | 1128.2 ± 1.4
371.6 K, 70000 kPa, Bellows volumetry | 1132.7 ± 1.4
371.6 K, 80000 kPa, Bellows volumetry | 1137.2 ± 1.4
371.6 K, 90000 kPa, Bellows volumetry | 1141.3 ± 1.4
371.6 K, 100000 kPa, Bellows volumetry | 1145.5 ± 1.4
371.6 K, 110000 kPa, Bellows volumetry | 1149.4 ± 1.4
371.6 K, 120000 kPa, Bellows volumetry | 1153.2 ± 1.4
371.6 K, 130000 kPa, Bellows volumetry | 1157 ± 1.4
371.6 K, 140000 kPa, Bellows volumetry | 1160.6 ± 1.4
371.6 K, 150000 kPa, Bellows volumetry | 1164.2 ± 1.4
371.6 K, 160000 kPa, Bellows volumetry | 1167.7 ± 1.4
371.6 K, 170000 kPa, Bellows volumetry | 1171 ± 1.4
371.6 K, 180000 kPa, Bellows volumetry | 1174.3 ± 1.4
371.6 K, 190000 kPa, Bellows volumetry | 1177.5 ± 1.4
371.6 K, 200000 kPa, Bellows volumetry | 1180.8 ± 1.4
373.15 K, 101.33 kPa, Vibrating tube method | 1094.9 ± 1
391.6 K, 10000 kPa, Bellows volumetry | 1089.8 ± 1.4
391.6 K, 20000 kPa, Bellows volumetry | 1095.6 ± 1.4
391.6 K, 30000 kPa, Bellows volumetry | 1101.5 ± 1.4
391.6 K, 40000 kPa, Bellows volumetry | 1107 ± 1.4
391.6 K, 50000 kPa, Bellows volumetry | 1112.3 ± 1.4
391.6 K, 60000 kPa, Bellows volumetry | 1117.2 ± 1.4
391.6 K, 70000 kPa, Bellows volumetry | 1122 ± 1.4
391.6 K, 80000 kPa, Bellows volumetry | 1126.6 ± 1.4
391.6 K, 90000 kPa, Bellows volumetry | 1131 ± 1.4
391.6 K, 100000 kPa, Bellows volumetry | 1135.2 ± 1.4
391.6 K, 110000 kPa, Bellows volumetry | 1139.4 ± 1.4
391.6 K, 120000 kPa, Bellows volumetry | 1143.4 ± 1.4
391.6 K, 130000 kPa, Bellows volumetry | 1147.1 ± 1.4
391.6 K, 140000 kPa, Bellows volumetry | 1151 ± 1.4
391.6 K, 150000 kPa, Bellows volumetry | 1154.6 ± 1.4
391.6 K, 160000 kPa, Bellows volumetry | 1158.1 ± 1.4
391.6 K, 170000 kPa, Bellows volumetry | 1161.5 ± 1.4
391.6 K, 180000 kPa, Bellows volumetry | 1165 ± 1.4
391.6 K, 190000 kPa, Bellows volumetry | 1168.2 ± 1.4
391.6 K, 200000 kPa, Bellows volumetry | 1171.5 ± 1.4
411.7 K, 10000 kPa, Bellows volumetry | 1077.9 ± 1.4
411.7 K, 20000 kPa, Bellows volumetry | 1084.3 ± 1.4
411.7 K, 30000 kPa, Bellows volumetry | 1090.4 ± 1.4
411.7 K, 40000 kPa, Bellows volumetry | 1096.2 ± 1.4
411.7 K, 50000 kPa, Bellows volumetry | 1101.7 ± 1.4
411.7 K, 60000 kPa, Bellows volumetry | 1106.9 ± 1.4
411.7 K, 70000 kPa, Bellows volumetry | 1111.9 ± 1.4
411.7 K, 80000 kPa, Bellows volumetry | 1116.7 ± 1.4
411.7 K, 90000 kPa, Bellows volumetry | 1120.6 ± 1.4
411.7 K, 100000 kPa, Bellows volumetry | 1125.1 ± 1.4
411.7 K, 110000 kPa, Bellows volumetry | 1129.3 ± 1.4
411.7 K, 120000 kPa, Bellows volumetry | 1133.4 ± 1.4
411.7 K, 130000 kPa, Bellows volumetry | 1137.4 ± 1.4
411.7 K, 140000 kPa, Bellows volumetry | 1141.2 ± 1.4
411.7 K, 150000 kPa, Bellows volumetry | 1145 ± 1.4
411.7 K, 160000 kPa, Bellows volumetry | 1148.7 ± 1.4
411.7 K, 170000 kPa, Bellows volumetry | 1152.3 ± 1.4
411.7 K, 180000 kPa, Bellows volumetry | 1155.8 ± 1.4
411.7 K, 190000 kPa, Bellows volumetry | 1159.2 ± 1.4
411.7 K, 200000 kPa, Bellows volumetry | 1162.6 ± 1.4
